# Reference: publication PMC2939770 (Bioorganic & Medicinal Chemistry, 2010)
# Columns and labels:
# 6PGDH = tested on: 6PGDH; design: method as in PMID 9307279; conditions: might bind to the cofactor binding site; cited from earlier work
# T. brucei 6PGDH [1] = biological target: T1, T. brucei 6PGDH (Trypanosoma brucei brucei, UniProt P31072); conditions: for Hill slope: slope of the IC50 curve, recombinant Tb6PGDH; for Ligand efficiency: −RTLn(IC50)/HAC, HAC: heavy atom count; for confirmation of enzyme inhibition on re-test: second round, repurchased hits of the first screening
# T1 sequence (P31072 1-479): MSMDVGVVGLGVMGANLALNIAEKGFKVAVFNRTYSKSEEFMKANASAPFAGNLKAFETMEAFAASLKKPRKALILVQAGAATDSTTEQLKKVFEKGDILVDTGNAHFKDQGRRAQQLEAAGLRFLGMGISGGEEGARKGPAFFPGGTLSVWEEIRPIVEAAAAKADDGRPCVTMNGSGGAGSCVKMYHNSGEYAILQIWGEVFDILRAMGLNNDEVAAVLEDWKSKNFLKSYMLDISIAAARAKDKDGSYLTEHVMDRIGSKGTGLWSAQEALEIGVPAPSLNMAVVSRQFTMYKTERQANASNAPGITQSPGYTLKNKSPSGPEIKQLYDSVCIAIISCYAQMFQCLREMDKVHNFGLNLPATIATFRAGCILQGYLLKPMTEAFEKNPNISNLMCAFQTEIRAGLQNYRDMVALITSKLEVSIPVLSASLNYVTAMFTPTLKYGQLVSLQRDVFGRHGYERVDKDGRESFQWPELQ
# Description: (§1) Inhibition studies involved a reaction in 50 mM triethanolamine pH 7.0, 2 mM MgCl2. NADPH and 6PG were each at 20 μM. Total reaction volume was 1 ml. The reaction was followed in a Perkin Elmer UV–vis spectrophotometer. Compounds were dissolved in DMSO and initially added at 200 μM, then 50 μM.
# T. brucei 6PGDH [2] = biological target: T1, T. brucei 6PGDH; assay: biochemical
# Description: as §1
Structure (SMILES),inhibition of 6PGDH (6PGDH),Hill slope (T. brucei 6PGDH [1]),Ligand efficiency (T. brucei 6PGDH [1]),IC50 (T. brucei 6PGDH [2]) [µM],confirmation of enzyme inhibition on re-test (T. brucei 6PGDH [1])
NC(=O)c1ccc(N)nc1 [6-aminonicotinamide],potential inhibitor of 6PGDH,–,–,–,–
CCOC(=O)c1[nH]c(C(=O)O)c(C)c1C [Compound 1],–,1.6,0.40 (kcal/mol)/HAC,45 ± 11,–
O=C(O)c1cc(Cl)c[nH]1 [Compound 2],–,1.8,0.66 (kcal/mol)/HAC,43 ± 9,–
Cc1oc([N+](=O)[O-])cc1C(=O)O [Compound 3],–,1.5,0.52 (kcal/mol)/HAC,28 ± 6,–
NC(=O)N1CCCC1C(=O)O (centres unmarked) [Compound 4],–,–,–,–,did not confirm the previous reported activity
NC(C(=O)O)c1ccsc1 (centres unmarked) [Compound 5],–,–,–,–,did not confirm the previous reported activity
NC(CS(=O)(=O)O)C(=O)O (centres unmarked) [Compound 10],–,–,–,–,did not confirm the previous reported activity
O=C1CC(S(=O)(=O)[O-])c2ccccc2/C1=N/O.[Na+] (centres unmarked) [Compound 11],–,1.4,0.33 (kcal/mol)/HAC,73 ± 9,–
Cc1c(C(=O)O)oc2c1C(=O)CSC2 [Compound 12],–,1.7,0.42 (kcal/mol)/HAC,51 ± 3,–
O=C(O)c1cc2sccc2[nH]1 [Compound 13],–,1.1,0.54 (kcal/mol)/HAC,42 ± 7,–
Cc1c(C(=O)O)[nH]c(-c2[nH]c(C(=O)O)c(C)c2C)c1C [Compound 14],–,1.4,0.27 (kcal/mol)/HAC,114 ± 27,–
O=C(O)C(=Cc1ccc([N+](=O)[O-])o1)C(=O)O [Compound 15],–,5.2,0.36 (kcal/mol)/HAC,56 ± 6,–
O=C1C=C(S(=O)(=O)[O-])c2ccccc2C1=O.[K+] [Compound 16],–,4.8,–,–,–
N#C/C(=C\c1ccc([N+](=O)[O-])o1)C(=O)O [Compound 17],–,2.0,0.48 (kcal/mol)/HAC,5.8 ± 0.6,–
O=C(O)c1cc(Cl)c(Cl)[nH]1 [Compound 18],–,2.1,0.60 (kcal/mol)/HAC,42 ± 3.7,–
